Measured values: US20030105167A1, “Treatment of opthalmic diseases” (priority 2001, published 2003)

Key:
[1] = test system: Trabecular meshwork cells; assay: Survival of primary trabecular meshwork cells under toxic conditions (live-dead dyes); format: cell-based; settings: hydrogen peroxide 100 uM, 24 hours, compound 2nM
Experimental: Trabecular meshwork cells used here were grown from fresh explants obtained from normal donors according to the procedures described in Agarwal et al., (1999) Exp Eye Res., Vol. 68, pp. 583 90 and Hogg et al., (2000) Invest Ophthalmol Vis. Sci., Vol. 41, pp. 1091-8. Cells were toxic conditions by exposure to hydrogen peroxide at 100 uM for 24 hours, which typically kills at least 50% of cells. With different batches of cells, the hydrogen peroxide concentration necessary to obtain 50% cell death frequently needs to be determined empirically. Trabecular cell viability was assessed using commercially available live-dead dyes. Other stains such as stains for DNA fragmentation or annexin binding are also suitable.
Compounds C and D, above, were initially dissolved at lmg/ml in absolute ethanol and diluted in culture medium to a final concentration of 2nM. To control for possible ethanol effects in the treated wells, all batches of media used here as were supplemented with absolute ethanol at appropriate concentrations. Cultured trabecular cells were incubated under toxic conditions with either compound C, compound D or no compound added for a period of 24 hours. Trabecular cell viability was assessed using commercially available live-dead dyes.

[2] = test system: retinal ganglion cells; assay: Survival of axotomized retinal ganglion cells after intraorbital optic nerve transection; format: in vivo; settings: ovarectomized adult female rats, twice daily subcutaneous injection in oil, two days prior to eight days following transection; counted after an additional 4 weeks
Experimental: The drugs were dissolved in sesame oil (Penta) at 100 ug/ml. Adult female rats to be used in these experiments were first ovarectomized. Rats were then subjected to intraorbital transection of the optic nerve, a procedure that leads to progressive degeneration of the majority of retinal ganglion cells. Cells survive for a few days and then die abruptly such that by one week only 50% survive and by two weeks only 10% survive. Axotomy is well known to lead to the death of retinal ganglion cells by an apoptotic process, causing classical cytochemical alterations characteristic of programmed cell death.
From two days prior to eight days following optic nerve transactions, 17β-estradiol, ent-17β-estradiol, or appropriate amount of vehicle control sample was administered to the animals by a twice daily subcutaneous injection of compound in oil at 100 ug/ml (see above), such that the final concentration delivered was 100 ug/. If the protective compounds to be used are in a water soluble formulation, they can, alternatively, be delivered by a single intravitreal injection. […]
After an additional 4 weeks, the retinal ganglial cells were labeled by retrograde staining with the carbocyanine dye, 4Di-10Asp, which was applied to the nerve stump. Three days later animals were sacrificed and surviving retinal cells were counted in retinal whole mounts. […]

[3] = test system: Transformed rat retinal ganglion cells (RGC-5 cells); assay: FRET assay of Ca+2-induced ΔΨm collapse in transformed retinal ganglion cells; format: cell-based; settings: FIG. 2; for extent of mitochondrial failure at the highest Ca+2 concentration: P<0.05 via ANOVA; for extent of mitochondrial collapse compared to buffer-treated controls: compound 5 minutes prior to Ca+2
Text: Transformed rat retinal ganglion cells (RGC-5 cells) were produced by transforming Sprague-Dawley rat retinal cells from postnatal day I rats with replication incompetent Ψ2 EIA virus and was originally established to help illuminate the basic mechanisms underlying RGC apoptosis in glaucoma (Krishnomoorthy, et al., 2001). The cells express the specific cellular marker, Thy-1, consistent with their retinal ganglion cell origin. Confirmation of Thy-1 expression was made by RT-PCR, immunocytochemistry and immunoblot analysis. […] The toxicity response with glutamate has an EC50 of about 50 uM. Importantly, transformed RGC cells undergo TUNEL-positive apoptotic-mediated cell death upon serum deprivation, indicating the presence of classical apoptosis pathways induced by mitochondrial dysfunction and/or failure.
Possible mitochondrial responses of our compounds are evaluated in intact RGC-5 cells using an assay for mitochondrial ΔΨm which is based on fluorescence energy transfer (FRET) between two dyes that colocalize to the mitochondria. The FRET assay circumvents the confounding variables of plasma membrane potential and the low flourcscence efficiency typical of single potentiometric dyes (Dykens and Stout, 2001). Transformed retinal ganglion cells (RGC-5) were plated at a concentration of 60K cells/well twenty-four hours prior to the experiment. The cells were permeabilized in place with 0.08% digitonin. Cells were exposed to 17β-estradiol, 17α-estradiol, and a non-hormonal PPC, Compound H (see Example 5), for 5 minutes prior to the addition of Ca^+2.
The excitation dye in the FRET ΔΨm assay is nonyl acridine orange (NAO). NAO is an exceptionally selective stain for cardiolipin, a lipid found intracellularly almost exclusively (>99%) in the mitochondrial inner membrane. Its staining of the inner membrane is independent of ΔΨm. The second dye is tetramethylrhodamine (TMR), a potentiometric dye that is sequestered into the mitochondrial matrix as a Nernstian function of ΔΨm and imposed concentration. It is the specificity of NAO staining for cardiolipin, combined with the absolute prerequisite for close proximity of both dyes, that allows this FRET assay to report ΔΨm without interference from plasma membrane potential.
Because uptake and retention of TMR depends on ΔΨm, at a given dye concentration, the extent of quenching of NAO by TMR reflects the magnitude of ΔΨm. Dissipation of ΔΨm, in response to […], elevated Ca+2 load, or respiratory […], results in efflux of TMR from the mitochondrion. The corresponding loss of proximity abolishes quenching of NAO, so that loss of ΔΨm is detected as an increase in NAO fluorescence.

[4] = test system: cell culture models; settings: doses as low as; cited from earlier work
[5] = test system: SHSY-5Y neuroblastoma cells; assay: FRET assay of Ca+2-induced mitochondrial membrane potential (ΔΨm) collapse in neuroblastoma cells; format: cell-based; settings: FIG. 1; right shift of dose response curve compared to control
Experimental: With reference to FIG. 1, mitochondria rapidly take up exogenous Ca^+2 to a maximum value before undergoing an irreversible loss of ΔΨm. ΔΨm was monitored after exposure to Ca^+2 concentrations ranging from 0 to 50 uM using a fluorescence resonance energy transfer (FRET) assay (Dykens and Stout, 2001). Cells were preincubated with 17β-estradiol and 17α-estradiol at 0.5 uM for 2.5 hrs. prior to Ca^+2 challenge, which was imposed by adding Ca^+2 directly to cells that had been permeabilized with digitonin (0.008%) final concentration, 5 min). The response, calculated as area under the curve, was plotted versus log Ca^+2 concentration using sigmoid regression analysis.
The excitation dye in the FRET ΔΨm assay is nonyl acridine orange (NAO). NAO is an exceptionally selective stain for cardiolipin, a lipid found intracellularly almost exclusively (>99%) in the mitochondrial inner membrane. Its staining of the inner membrane is independent of ΔΨm. […]
Because uptake and retention of TMR depends on ΔΨm, at a given dye concentration, the extent of quenching of NAO by TMR reflects the magnitude of ΔΨm. […] The corresponding loss of proximity abolishes quenching of NAO, so that loss of ΔΨm is detected as an increase in NAO fluorescence.

[6] = test system: Transformed rat retinal ganglion cells (RGC-5 cells); settings: read-out: EC50 of toxicity response; cited from earlier work
[7] = test system: Human retinal pigment epithelial cells (RPE340 cells); assay: Survival of retinal pigment epithelial cells under hyperoxia (Trypan blue exclusion); format: cell-based; settings: 40% O2 hyperoxia, 5 days, compound 2 nM
Experimental: Human retinal pigment epithelial cells (RPE340 cells) were grown and subjected to conditions of hyperoxia according to Honda et al., (2001) Invest Ophthalmol Vis. Sci., Vol. 42, pp. 2139-44. The cells were subjected to either 40% O2 or 20% O2 (control) for the duration of the experiment. These conditions are known to induce apoptotic cell death.
Compounds A and B, above, were initially dissolved at 1 mg/ml in absolute ethanol and diluted in culture medium to a final concentration of 2 nM. To control for possible ethanol effects in the treated wells, all batches of media used here were supplemented with absolute ethanol at appropriate concentrations. Cells were incubated under hyperoxic conditions with either compound A, compound B or no compound added for a period of 5 days. Effects on cell viability and growth were monitored by Trypan blue exclusion.

[8] = test system: mouse HT-22 hippocampal cells; assay: Protection against glutamate toxicity, calcein AM viability; format: cell-based; settings: glutamate 10 mM, 16 hours, representative study; read-out: Calculated EC50 for protection of cell viability
Experimental: For instance, in this study, mouse HT-22 hippocampal cells were cultured in DMEM supplemented with 10% fetal calf serum. Cells were plated and simultaneously treated with glutamate (10 mM) and one of the test compounds individually, for instance compound H (also referred to as Compound 4565 in FIG. 2 and one of many protective PPCs disclosed in PCT publications WO02/36605 and WO00/63228), below or positive control 17β-estradiol (E), at various doses between 10 nM and 10 µM. After 16 hours, cell viability was determined using the calcein AM fluorescence (Excitation/Emission 485/530 […]) in a Bio-Tex Microplate Fluorescence Reader.

[9] = test system: retinal ganglion layer; settings: administered prior to the insult; several days following reperfusion; cited from earlier work

Structure (SMILES): CC(C)(C)c1cc2c(cc1O)CC[C@@H]1[C@@H]2CC[C@]2(C)C(=O)CC[C@@H]12 [D, 2-(1-tertbutyl)-3-hydroxyestra-1,3, 5 (IO)-trien-17-one]
- survival of trabecular cells [1]: significantly improve survival

Structure (SMILES): C[C@@]12CC[C@H]3c4ccc(O)cc4CC[C@@H]3[C@H]1CC[C@H]2O (single isomer, unassigned; ent-17) [ent-17β-estradiol]
- number of surviving retinal ganglial cells compared to the controls [2]: 3 fold

Structure (SMILES): C[C@]12CC[C@@H]3c4ccc(O)cc4CC[C@H]3[C@@H]1CC[C@H]2O [17α-estradiol]
- extent of mitochondrial failure at the highest Ca+2 concentration [3]: significantly lowered
- extent of mitochondrial collapse compared to buffer-treated controls [3]: moderated
- dose giving substantial cytoprotection [4]: 0.2 nM
- amount of Ca+2 required to induce ΔΨm collapse [5]: substantially increase

Structure (SMILES): N[C@@H](CCC(=O)O)C(=O)O [glutamate]
- EC50 [6]: ~50 µM

Structure (SMILES): C[C@]1(C=O)CC[C@@H]2c3ccc(O)cc3CC[C@H]2C1 [compound B, [2S-(2a, 4aα, 10aβ)]-1,2,3,4,4a, 9, 10, 10a-octahydro-7-hydroxy-2-methyl-2-phenanthrenecarboxaldehyde]
- protection from cell death [7]: protect these cells from cell death

Structure (SMILES): C[C@]1(CO)CC[C@@H]2c3ccc(O)cc3CC[C@H]2C1 [compound A, [2S-(2a, 4aα, 10aβ)]-1,2,3,4,4a,9,10,10a-octahydro-7-hydroxy-2-methyl-2-phenanthrenemethanol]
- protection from cell death [7]: protect these cells from cell death

Structure (SMILES): C[C@]12CC[C@@H]3c4ccc(O)cc4CC[C@H]3[C@@H]1CC[C@@H]2O [17β-estradiol]
- number of surviving retinal ganglial cells compared to the controls [2]: 3 fold
- extent of mitochondrial failure at the highest Ca+2 concentration [3]: significantly lowered
- extent of mitochondrial collapse compared to buffer-treated controls [3]: moderated
- dose giving substantial cytoprotection [4]: 0.2 nM
- amount of Ca+2 required to induce ΔΨm collapse [5]: substantially increase
- EC50 [8]: 2.2 µM
- cell density in the retinal ganglion layer [9]: significantly higher

Structure (SMILES): C[C@]12CC[C@@H]3c4cc(C56CC7CC(CC(C7)C5)C6)c(O)cc4CC[C@H]3[C@@H]1CCC2=O [C, 2-(1-Adamantyl)-3-hydroxyestra-1,3, 5 (10)-trien-17-one]
- survival of trabecular cells [1]: significantly improve survival
